In one experiment the target is T1, GltPh-G396S/R397C (Pyrococcus horikoshii, UniProt O59010, G396S/R397C).
T1 construct: hexa-His (N, cleaved yes); made in house; host or cells: Escherichia coli Top10 (pBAD)
The experiment in a line: biochemical. It is filed as biochemical. How it is done: Mutant and wild-type GltPh with an amino-terminal hexa-His tag were expressed in Escherichia coli Top10 cells (Invitrogen), which were grown in Luria broth medium at 37 °C. Ampicillin was added to a final concentration of 100 μg per ml. To induce expression of GltPh, 0.1% L-arabinose was added when cells reached an optical density of 0.6 at 660 nm, and cells were harvested 4 h post induction. Membranes were isolated, and then solubilised with n-dodecyl-β-D-maltopyranoside (C12M, Anatrace). Histidine containing proteins were purified using Ni^2+−nitrilotriacetic acid resin (Qiagen). The histidine tag was subsequently removed from GltPh by digestion with thrombin (10 U per mg protein) and the protein further purified on a Superdex 200 size exclusion column, where the detergent was exchanged to n-decyl-β-D-maltopyranoside (C10M, Anatrace).
Pure protein was reconstituted into liposomes composed of 75% E. coli Polar Lipid Extract and 25% 1-palmitoyl-2-oleoyl-sn-glycero-3 ^−phopshocholine (Avanti Polar Lipids). Lipids were mixed, dried under nitrogen and resuspended in internal buffer (100 mM KCl, 20 mM HEPES-Tris pH 7.5) using brief sonication (Laboratory Supplies Co.). The lipid suspension was frozen in liquid nitrogen and thawed at room temperature several times. Liposomes were formed by extrusion through 400 nm polycarbonate membranes (Avanti Polar Lipids) and were treated with Triton X-100 at a 0.5:1 (w/w) detergent to lipid ratio prior to the addition of protein at 0.25 μg protein per mg lipid. The protein/lipid mixture was left at room temperature for 30 min before detergent was removed using SM2 Biobeads (BioRad). The mixture was then incubated with gentle agitation, with four consecutive batches of Biobeads (80 mg per ml). Proteoliposomes were concentrated by centrifugation at 150,000 g for 30 min, resuspended at 100 mg lipid per ml and either used immediately or flash-frozen in liquid nitrogen and stored at −80 °C.
Mutant and wild-type GltPh-mediated transport of radiolabelled substrate was assayed by diluting proteoliposomes (100 mg lipid per ml) 133-fold into uptake buffer (100 mM NaCl, 20 mM HEPES-Tris pH 7.5, 1 μM valinomycin, 100 nM–1 µM L-[^3H]substrate) pre-warmed to 30 °C. At each time point, a 200 µl aliquot was removed and diluted 10-fold into ice-cold quench buffer (100 mM LiCl, 20 mM HEPES-Tris pH 7.5), followed by immediate filtration over nitrocellulose filters (0.22 μm pore size, Millipore). The filters were washed with ice-cold quench buffer and assayed for radioactivity using a Trilux beta counter (PerkinElmer). To establish substrate concentration–response curves, extraliposomal L-[^3H]substrate was varied between 500 nM and 100 µM, maintaining NaCl concentrations at 300 mM. For inhibitor concentration–response curves, for wild-type GltPh 100 nM L-[^3H]aspartate, and for mutant GltPh 1 µM L-[^3H]serine, was co-applied with varying inhibitor concentrations. Background levels of uptake were measured by diluting proteoliposomes into internal buffer (100 mM KCl, 20 mM HEPES-Tris pH 7.5) containing 1 µM of valinomycin and the indicated concentrations of L-[^3H]substrate.

A further experiment has as its target T2, ASCT2 (Homo sapiens, UniProt Q15758).
T2 sequence (Q15758 1-541): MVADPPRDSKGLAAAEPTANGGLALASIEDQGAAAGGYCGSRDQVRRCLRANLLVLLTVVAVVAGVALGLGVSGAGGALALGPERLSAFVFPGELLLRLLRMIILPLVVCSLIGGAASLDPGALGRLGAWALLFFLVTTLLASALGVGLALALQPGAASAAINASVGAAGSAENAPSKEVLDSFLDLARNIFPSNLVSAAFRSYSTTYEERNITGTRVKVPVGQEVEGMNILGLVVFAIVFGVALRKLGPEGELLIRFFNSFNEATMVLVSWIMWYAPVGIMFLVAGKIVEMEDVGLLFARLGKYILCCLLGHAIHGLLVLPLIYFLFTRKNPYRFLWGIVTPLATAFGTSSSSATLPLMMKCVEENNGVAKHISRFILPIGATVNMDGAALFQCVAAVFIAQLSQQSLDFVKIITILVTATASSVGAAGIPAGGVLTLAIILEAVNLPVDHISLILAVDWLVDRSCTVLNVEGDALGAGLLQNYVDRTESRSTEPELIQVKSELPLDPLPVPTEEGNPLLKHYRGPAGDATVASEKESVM
The experiment in a line: Radiolabelled uptake in oocytes expressing ASCT2. Particulars: 10 µM radiolabelled substrate, 10 min, room temperature. It is filed as cell-based. How it is done:
Uptake of L-[^3H]amino acids (PerkinElmer Life Sciences) was measured in oocytes expressing wild-type and mutant ASCT1, and uninjected oocytes. Five oocytes were incubated in Cl^−-containing buffer with 10 µM L-[^3H]amino acids at room temperature. After 10 min, uptake was terminated by three rapid washes in ice-cold Cl^−-containing buffer followed by lysis in 50 mM NaOH and 1% SDS. L-[^3H]amino acids were measured by scintillation counting using a Trilux beta counter (PerkinElmer Life Sciences).
Supplementary Figure 6. GltPh‐R397C, ASCT1 and ASCT2 are functional cysteine transporters. (a) […]
7.5) containing 1 µM of valinomycin and the 10µM 35S‐cysteine. […]
(1 picture or pasted object on this page, not shown here)

Structures are written as SMILES.

The source of these data is article PMC5750217 (Nature Communications, 2018).

T1 sequence (O59010 whole entry G396S/R397C): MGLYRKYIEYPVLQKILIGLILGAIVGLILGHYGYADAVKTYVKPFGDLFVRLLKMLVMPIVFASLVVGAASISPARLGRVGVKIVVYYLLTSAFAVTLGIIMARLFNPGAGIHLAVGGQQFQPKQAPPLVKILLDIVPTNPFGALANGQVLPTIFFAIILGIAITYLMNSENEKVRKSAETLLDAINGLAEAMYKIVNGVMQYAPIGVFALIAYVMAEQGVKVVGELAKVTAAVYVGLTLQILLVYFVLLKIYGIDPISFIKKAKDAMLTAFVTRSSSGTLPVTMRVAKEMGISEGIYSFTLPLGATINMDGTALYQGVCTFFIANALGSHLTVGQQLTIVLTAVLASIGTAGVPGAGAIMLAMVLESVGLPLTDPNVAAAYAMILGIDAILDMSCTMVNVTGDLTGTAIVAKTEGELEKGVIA

For orientation: EC50 means the midpoint of the concentration-response curve. Read a high EC50 as a need for much substance. For the compound `N[C@@H](CO)C(=O)O` [L-serine], at GltPh-G396S/R397C, a half-maximal response (EC50) required 15 ± 2 µM. In addition, the “Radiolabelled substrate uptake into oocytes (in words)” value at ASCT2 is “observe L-[^3H]serine uptake”.

With `N[C@@H](CS)C(=O)O` [L-cysteine], the “Reduction of L-[3H]serine transport by unlabelled competitor (in words)” value on GltPh-G396S/R397C (GltPh-R397C/G396S, 10 µM L-[3H]serine, 100-fold excess unlabelled amino acid) is reported as “to a similar extent”. Moreover, the “Radiolabelled substrate uptake into oocytes (in words)” value at ASCT2 was “robust L-[^35S]cysteine uptake”.

Consider `N[C@@H](CCC(=O)Nc1ccc([N+](=O)[O-])cc1)C(=O)O` [GPNA, glutamyl-p-nitroanilide], for which the “IC50 for inhibition of L-[3H]serine transport” value at GltPh-G396S/R397C (GltPh-G396S/R397C, 1 µM L-[3H]serine) is on record as “poor inhibitor”.

For the compound `NC(=O)CC[C@H](N)C(=O)O` [L-glutamine], the “Transport of radiolabelled substrate into proteoliposomes (in words)” value at GltPh-G396S/R397C (GltPh-G396S/R397C, 100 nM L-[3H]aspartate, 1 µM L-[3H]glutamine, Na+ gradient, pH 7.5) was “does not effectively transport”. Further, the “Radiolabelled substrate uptake into oocytes (in words)” value at ASCT2 is “robust L-[^3H]glutamine uptake”.
